Where a name gives a salt, the structure may show the parent alone. Read-outs that look alike come from different tables or passages of the source.
Legend:
[1] = test system: E. coli ATCC 25922; experiment: Broth microdilution assay (MIC); format: cell-based, Escherichia coli; details: for MIC: broth microdilution, 16-24 hours at 37° C.; for MIC +1 mg/mL LD: titrated in a constant concentration of 1 mg/mL lidocaine base
Description: (§1) Broth Microdilution Assay: A stock solution of each test article was serially diluted in a 96-well plate for a final volume of 0.1 mL per well. […] Turbidity was assessed after 16-24 hours at 37° C. (100 rpm).
(§2) Incubated at 37° C. at 200 rpm for approximately 2 hours to fully dissolve the powder. Filter sterilized.
(§3) Prepared a 2× stock of lidocaine HCl by dissolving 500 mg per 10 mL OSB (=50 mg/mL). Filter sterilized.
(§4) Serially diluted (2-fold series) the contents of rows B to G: Removed 100 μL from row B to row C and mixed by pipetting up and down at least 3 times. Discarded the tips.
(§5) For bacteria: Mixed 10 μL O/N with 990 μL OSB for ˜10^7 CFU/mL, then mixed 100 μL of the ˜10^7 CFU/mL culture with 9.90 mL BGM for ˜10^5 CFU/mL. • b. For yeast: Mixed 100 μL O/N with 9.90 mL BGM for ˜10^5 CFU/mL.
(§6) Immediately poured the ˜10^5 CFU/mL inoculum into a sterile reagent reservoir and used a multichannel pipettor to aliquot 100 μL into each well of the 96-well plates, excluding row H. Mixed by pipetting up and down at least 3 times. Added uninoculated BGM to row H.
(§7) Sealed the plates in sandwich bags and incubated at 37±1° C. for 16-24 hours (100 rpm).
(§8) Visually scored for growth, which appeared as turbidity or as a deposit of cells at the bottom of a well.
(§9) Determined the MIC (minimum inhibitory concentration) for each organism. The MIC was defined as the minimum concentration that inhibited growth of the organism.
(§10) MIC determination from Broth Microdilution: MIC results were determined following the overnight incubation of the broth microdilution plates. Ensured that the SC wells were free of growth and that the GC wells were positive for growth. To determine the minimum inhibitory concentration (MIC) values, checked for turbidity in the wells of the challenge plate and scored. The MIC was defined as the minimum concentration that inhibited visible growth of the organism.

[2] = test system: all seven tested organisms; experiment: Broth microdilution assay (MIC), summary over the panel; format: cell-based; details: for MIC (plus lidocaine base): all seven organisms, constant concentration of 1 mg/mL lidocaine base
Description: as §1
Prepared a 2× stock solution of lidocaine by dissolving 20 mg of free-base lidocaine per 10 mL of OSB (=2 mg/mL). Incubated at 37° C. at 200 rpm for approximately 2 hours to fully dissolve the powder. Filter sterilized.
as §3
Prepared 2× stock (=8% v/v) of DMSO or NMP by mixing 800 μL of either with 9.2 mL of OSB or with OSB plus 2 mg/mL lidocaine base.
Aliquoted 200 μL of the 2× stock of LD-HCl, LD base, DMSO, NMP, DMSO+LD base, or NMP+LD base into wells B1-2, B3-4, B5-6, B7-8, B9-10, or B11-12, respectively.
as §4, §5, §6, §7, §8, §9
MIC determination from Broth Microdilution: MIC results were determined following the overnight incubation of the broth microdilution plates. […] To determine the minimum inhibitory concentration (MIC) values, checked for turbidity in the wells of the challenge plate and scored. […]

[3] = test system: P. aeruginosa ATCC 15442; experiment: Broth microdilution assay (MIC); format: cell-based, Pseudomonas aeruginosa; details: for MIC: broth microdilution, 16-24 hours at 37° C.; for MIC +1 mg/mL LD: titrated in a constant concentration of 1 mg/mL lidocaine base
Description: as §1, §2, §3, §4, §5, §6, §7, §8, §9, §10

[4] = test system: C. albicans ATCC 10231; experiment: Broth microdilution assay (MIC); format: cell-based, Candida albicans; details: for MIC: broth microdilution, 16-24 hours at 37° C.; for MIC +1 mg/mL LD: titrated in a constant concentration of 1 mg/mL lidocaine base
Description: as §1, §2, §3, §4, §5, §6, §7, §8, §9, §10

[5] = test system: E. faecalis ATCC 51575; experiment: Broth microdilution assay (MIC); format: cell-based, Enterococcus faecalis; details: for MIC: broth microdilution, 16-24 hours at 37° C.; for MIC +1 mg/mL LD: titrated in a constant concentration of 1 mg/mL lidocaine base
Description: as §1, §2, §3, §4, §5, §6, §7, §8, §9, §10

[6] = test system: S. aureus ATCC 29213; experiment: Broth microdilution assay (MIC); format: cell-based, Staphylococcus aureus; details: for MIC: broth microdilution, 16-24 hours at 37° C.; for MIC +1 mg/mL LD: titrated in a constant concentration of 1 mg/mL lidocaine base
Description: as §1, §2, §3, §4, §5, §6, §7, §8, §9, §10

[7] = test system: P. mirabilis ATCC 29906; experiment: Broth microdilution assay (MIC); format: cell-based, Proteus mirabilis; details: for MIC: broth microdilution, 16-24 hours at 37° C.; for MIC +1 mg/mL LD: titrated in a constant concentration of 1 mg/mL lidocaine base
Description: as §1, §2, §3, §4, §5, §6, §7, §8, §9, §10

[8] = test system: S. epidermidis ATCC 35984; experiment: Broth microdilution assay (MIC); format: cell-based, Staphylococcus epidermidis; details: for MIC: broth microdilution, 16-24 hours at 37° C.; for MIC +1 mg/mL LD: titrated in a constant concentration of 1 mg/mL lidocaine base
Description: as §1, §2, §3, §4, §5, §6, §7, §8, §9, §10

[9] = test system: P. aeruginosa ATCC 27853; details: cited from earlier work
[10] = test system: S. aureus ATCC 29213; details: cited from earlier work
[11] = test system: E. coli ATCC 25922; details: cited from earlier work

| Structure (SMILES) | MIC [1] | MIC +1 mg/mL LD [1] [% v/v] | MIC (plus lidocaine base) [2] [% v/v] | MIC [3] | MIC +1 mg/mL LD [3] [% v/v] | MIC [4] | MIC +1 mg/mL LD [4] [% v/v] | MIC [5] | MIC +1 mg/mL LD [5] [% v/v] | MIC [6] | MIC +1 mg/mL LD [6] [% v/v] | MIC [7] | MIC +1 mg/mL LD [7] [% v/v] | MIC [8] | MIC +1 mg/mL LD [8] [% v/v] | other results |
| --- | --- | --- | --- | --- | --- | --- | --- | --- | --- | --- | --- | --- | --- | --- | --- | --- |
| C[S+](C)[O-] [DMSO, Dimethyl Sulfoxide] | >4.00 % v/v | >4.00 | > 4 | >4.00 % v/v | >4.00 | >4.00 % v/v | >4.00 | >4.00 % v/v | >4.00 | >4.00 % v/v | >4.00 | >4.00 % v/v | >4.00 | >4.00 % v/v | >4.00 | – |
| CCN(CC)CC(=O)Nc1c(C)cccc1C [LD-B, Free base lidocaine] | >1.00 mg/mL | – | – | >1.00 mg/mL | – | >1.00 mg/mL | – | >1.00 mg/mL | – | >1.00 mg/mL | – | >1.00 mg/mL | – | >1.00 mg/mL | – | – |
| CCN(CC)CC(=O)Nc1c(C)cccc1C [LD-HCl, Lidocaine hydrochloride] | – | – | – | – | – | – | – | – | – | – | – | – | – | – | – | MIC (published literature) [9]: > 20.0 mg/mL; MIC ([1]; Escherichia coli, ATCC25922, read-out: MIC): 6.25 mg/mL; MIC ([3]; Pseudomonas aeruginosa, ATCC15442, read-out: MIC): 25 mg/mL; MIC ([4]; Candida albicans, ATCC10231, read-out: MIC): 12.5 mg/mL; MIC ([5]; Enterococcus faecalis, ATCC51575, read-out: MIC): 25 mg/mL; MIC (published literature) [10]: 20.0 mg/mL; MIC ([6]; Staphylococcus aureus, ATCC29213, read-out: MIC): 12.5 mg/mL; MIC ([7]; Proteus mirabilis, ATCC29906, read-out: MIC): 12.5 mg/mL; MIC ([8]; Staphylococcus epidermidis, ATCC35984, read-out: MIC): 25 mg/mL; MIC (published literature) [11]: 5.00 mg/mL |
| CN1CCCC1=O [NMP, n-methyl-2-pyrrolidone] | 4.00 % v/v | 4.00 | 4 | 4.00 % v/v | 4.00 | 4.00 % v/v | 4.00 | 4.00 % v/v | 4.00 | 4.00 % v/v | 4.00 | 4.00 % v/v | 4.00 | 4.00 % v/v | 4.00 | MIC ([2]; for all seven tested organisms, maximum challenge concentration 4% v/v): 4 % v/v |

Reference: patent publication US20250269093A1, “METHODS OF ENHANCING ANTIMICROBIAL EFFICACY OF LOCAL ANESTHETICS” (Chinook Contract Research Inc., priority 2023, published 2025)
